These results are taken from patent US20250034139A1, “AMINE COMPOUNDS HAVING ANTI-INFLAMMATORY, ANTIFUNGAL, ANTIPARASITIC, AND ANTICANCER ACTIVITY” (PHARMA CINQ, LLC, priority 2013, published 2025).

Assay [1] concerns PC-3 prostate cancer cells. The assay is described as follows: Example T: sensitisation of PC-3 cells to doxorubicin, oxaliplatin, paclitaxel or vincristine, Wst1. Format: cell-based, human. As to conditions: PC-3 cells, 72 hours; for viability at 2.5 µM: compound 2.5 μM alone; for Doxorubicin 3.5 μM: percent cell survival / Oxaliplatin 100 μM: percent cell survival / Paclitaxel 50 μM: percent cell survival / Vincristine 100 nM: percent cell survival: chemotherapy agent alone normalized to 100%; for viability at 0.4 µM: compound 0.4 μM alone.

Assay [2] has as its system 4T1 murine breast cancer cells. In words: Example S: in vitro anticancer screen, 4T1 cells, Wst1. Format: cell-based, mouse. The following applies: Mus musculus, 4T1, 18 h, 18 hr, Wst1; for viability at 1 µM: read-out: 4T1 1 μM, percent of cancer cell survival relative to vehicle treated cells; for viability at 5 µM: read-out: 4T1 5 μM, percent of cancer cell survival relative to vehicle treated cells. An outline of the steps: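 Read-out is Wst1 absorbance (450 nm, reference 630 nm) after roughly 2 hr dye incubation, giving percent cell survival versus vehicle. Before that, compounds at 1 μM or 5 μM were applied for 18 hr to 4T1 cells plated at 1×10^4 per well.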

A further assay deals with THP-1 cells. In words: Example D: LPS-triggered THP-1 cell death assay, acute/5-hour and chronic/48-hour. Format: cell-based, Human. The following applies: for Viable cell percent change, Chronic/48-hour, Mean: 10 ng/ml LPS, 0.1 μM test compound. As to the method:
Compounds of the invention were tested at 0.1 μM versus AC in the LPS-triggered THP-1 cell death assay. Both acute/5-hour and chronic/48-hour phases of cell death were assessed. Compounds were screened in batches with DMSO as the negative control and AC as the high activity control.

Assay [3] has as its system PC3 human prostate cancer cells. In words: Example S: in vitro anticancer screen, PC-3 cells, Wst1. Format: cell-based. As to conditions: Homo sapiens, PC-3, approximately 20 hours, Wst1, read-out: PC-3, percent of cancer cell survival relative to vehicle treated cells. An outline of the steps: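 Values give percent survival relative to vehicle, read by Wst1 absorbance (450/630 nm) after 2 h dye incubation, in triplicate. Cells were seeded at 2×10^4/well and treated about 20 h with compound at 0.4, 0.5 or 2.5 μM, depending on compound.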

[4] abbreviates: Homo sapiens, Wst1, vehicle = 100, read-out: No Chemo: percent cell survival.
Setting [5] is: compound 2.5 μM + doxorubicin 3.5 μM.
Where [6] appears, read: compound 2.5 μM + oxaliplatin 100 μM.
The mark [7] stands for this setting: compound 2.5 μM + paclitaxel 50 μM.
[8] abbreviates: compound 2.5 μM + vincristine 100 nM.
Where [9] appears, read: compound 0.4 μM + doxorubicin 3.5 μM.
The mark [10] stands for this setting: compound 0.4 μM + oxaliplatin 100 μM.
Setting [11] is: compound 0.4 μM + paclitaxel 50 μM.
Where [12] appears, read: compound 0.4 μM + vincristine 100 nM.

With `CCCCCCOc1ccccc1Nc1ccnc2ccccc12` [DP, N-[2-(Hexyloxy)phenyl]quinolin-4-amine], the viability at 2.5 µM in assay [1] (setting [4]) and in assay [3] was 37.5% in each case. Besides, the “Doxorubicin 3.5 μM: percent cell survival” value in assay [1] (setting [5]) is 65.3%. Besides, the “Oxaliplatin 100 μM: percent cell survival” value in assay [1] (setting [6]) was determined as 77.4%. For the same compound, the “Paclitaxel 50 μM: percent cell survival” value in assay [1] (setting [7]) is reported as 64.6%. Besides, the “Vincristine 100 nM: percent cell survival” value in assay [1] (setting [8]) is 74.1%. Besides, the viability at 1 µM in assay [2] amounted to 72.5%. In addition, the viability at 5 µM in assay [2] is 25.4%. Further, the “Viable cell percent change, Chronic/48-hour, Mean” value (“Viable cell percent change” below) in the assay on THP-1 cells was determined as 42.36%.
In the case of `c1ccc(CCNc2ccnc3ccccc23)cc1` [DR, N-Phenethylquinolin-4-amine], the viability at 2.5 µM in assay [1] (setting [4]) and in assay [3] was 31.5% throughout. Also, the “Doxorubicin 3.5 μM: percent cell survival” value in assay [1] (setting [5]) was determined as 59.9%. Besides, the “Oxaliplatin 100 μM: percent cell survival” value in assay [1] (setting [6]) is given as 68.7%. Also, the “Paclitaxel 50 μM: percent cell survival” value in assay [1] (setting [7]) was 49.2%. Also, the “Vincristine 100 nM: percent cell survival” value in assay [1] (setting [8]) worked out at 35.5%. Further, the viability at 1 µM in assay [2] was determined as 77.9%. Besides, the viability at 5 µM in assay [2] stood at 27.2%. Also, the “Viable cell percent change” value in the assay with THP-1 cells was found to be 27.12%.
`CCCCCCOc1ccccc1CNc1ccnc2ccccc12` [DS, N-[2-(Hexyloxy)benzyl]quinolin-4-amine]: the viability at 0.4 µM in assay [1] (setting [4]) and in assay [3] was 70% in each case. The “Doxorubicin 3.5 μM: percent cell survival” value in assay [1] (setting [9]) is given as 86.4%. In addition, in assay [1] (setting [10]), the “Oxaliplatin 100 μM: percent cell survival” value came out at 97%. Moreover, the “Paclitaxel 50 μM: percent cell survival” value in assay [1] (setting [11]) is given as 97.1%. Also, the “Vincristine 100 nM: percent cell survival” value in assay [1] (setting [12]) is given as 98.6%. The viability at 1 µM in assay [2] turned out to be 35.6%. For the same compound, in assay [2], the viability at 5 µM was 25.5%. Besides, in the assay with THP-1 cells, the “Viable cell percent change” value came to 56.67%.
With `O=C(NCCCCCCCCNc1ccnc2ccccc12)c1ccccc1` [DY, N-[8-(Quinolin-4-ylamino)octyl]benzamide], the viability at 5 µM in assay [1] (Homo sapiens, compound 5 μM alone, Wst1, vehicle = 100, read-out: No Chemo: percent cell survival) amounted to 16.1%; in assay [2], 60.5%; in assay [3] (5 μM) it was 16.1%. Moreover, the “Doxorubicin 3.5 μM: percent cell survival” value in assay [1] (compound 5 μM + doxorubicin 3.5 μM) came to 21.2%. Further, the “Oxaliplatin 100 μM: percent cell survival” value in assay [1] (compound 5 μM + oxaliplatin 100 μM) is on record as 20.6%. The “Paclitaxel 50 μM: percent cell survival” value in assay [1] (compound 5 μM + paclitaxel 50 μM) was 23.3%. In assay [1] (compound 5 μM + vincristine 100 nM), the “Vincristine 100 nM: percent cell survival” value was 18.3%. Further, the viability at 1 µM in assay [2] was 88.9%. Also, in the assay with THP-1 cells, the “Viable cell percent change” value is on record as 45.25%.
For `COc1cccc(C(=O)NCCCCCCCCNc2ccnc3ccccc23)c1` [DZ, 3-Methoxy-N-[8-(quinolin-4-ylamino)octyl]benzamide], the viability at 0.4 µM in assay [1] (setting [4]) came to 84.8%. In addition, the “Doxorubicin 3.5 μM: percent cell survival” value in assay [1] (setting [9]) came out at 85.6%. In addition, in assay [1] (setting [10]), the “Oxaliplatin 100 μM: percent cell survival” value came to 86.7%. Moreover, in assay [1] (setting [11]), the “Paclitaxel 50 μM: percent cell survival” value worked out at 71.8%. Further, the “Vincristine 100 nM: percent cell survival” value in assay [1] (setting [12]) is given as 89%. Further, in assay [2], the viability at 1 µM worked out at 23.7% and the viability at 5 µM was 17.4%. Also, the “Viable cell percent change” value in the assay on THP-1 cells was found to be 73.5%. Also, the viability at 0.4 µM in assay [3] amounted to 84.8%.
For `COc1ccc(C(=O)NCCCCCCCCNc2ccnc3ccccc23)cc1` [EA, 4-Methoxy-N-[8-(quinolin-4-ylamino)octyl]benzamide], in assay [1] (setting [4]), the viability at 0.4 µM turned out to be 108%. Further, the “Doxorubicin 3.5 μM: percent cell survival” value in assay [1] (setting [9]) was 87.8%. The “Oxaliplatin 100 μM: percent cell survival” value in assay [1] (setting [10]) stood at 89%. Besides, the “Paclitaxel 50 μM: percent cell survival” value in assay [1] (setting [11]) is given as 73.5%. Also, the “Vincristine 100 nM: percent cell survival” value in assay [1] (setting [12]) is listed as 84.5%. For the same compound, in assay [2], the viability at 1 µM was determined as 31.1% and the viability at 5 µM amounted to 36.8%. In addition, the “Viable cell percent change” value in the assay on THP-1 cells is 73.48%. The viability at 0.4 µM in assay [3] is 108%.
On to `O=C(NCCCCCCCCNc1ccnc2ccccc12)c1ccccn1` [EE, N-[8-(Quinolin-4-ylamino)octyl]picolinamide], for which the viability at 0.4 µM in assay [1] (setting [4]) is 34%. Moreover, the “Doxorubicin 3.5 μM: percent cell survival” value in assay [1] (setting [9]) came out at 66.4%. In assay [1] (setting [10]), the “Oxaliplatin 100 μM: percent cell survival” value is on record as 70.8%. Further, the “Paclitaxel 50 μM: percent cell survival” value in assay [1] (setting [11]) worked out at 45.3%. Besides, the “Vincristine 100 nM: percent cell survival” value in assay [1] (setting [12]) was found to be 47.1%. For the same compound, in assay [2], the viability at 1 µM came to 24% and the viability at 5 µM came to 18.1%. Besides, in the assay on THP-1 cells, the “Viable cell percent change” value is listed as 24.32%. Besides, in assay [3], the viability at 0.4 µM stood at 34%.
For the compound `O=C(NCCCCCCCCNc1ccnc2ccccc12)c1ccncc1` [EG, N-[8-(Quinolin-4-ylamino)octyl]isonicotinamide], the viability at 0.4 µM in assay [1] (setting [4]) was 92.2%. In addition, the “Doxorubicin 3.5 μM: percent cell survival” value in assay [1] (setting [9]) is given as 91.3%. In addition, in assay [1] (setting [10]), the “Oxaliplatin 100 μM: percent cell survival” value is on record as 96.2%. The “Paclitaxel 50 μM: percent cell survival” value in assay [1] (setting [11]) is recorded as 95.3%. For the same compound, in assay [1] (setting [12]), the “Vincristine 100 nM: percent cell survival” value is on record as 88.5%. Further, in assay [2], the viability at 1 µM was 34.7% and the viability at 5 µM was 27.7%. The “Viable cell percent change” value in the assay on THP-1 cells came to 60.59%. For the same compound, the viability at 0.4 µM in assay [3] was found to be 92.2%.
In the case of `CCCCCCNc1ccnc2ccccc12` [EI, N-Hexylquinolin-4-amine], the viability at 2.5 µM in assay [1] (setting [4]) and in assay [3] was 31.2% throughout. In addition, in assay [1] (setting [5]), the “Doxorubicin 3.5 μM: percent cell survival” value was found to be 66.1%. Besides, the “Oxaliplatin 100 μM: percent cell survival” value in assay [1] (setting [6]) came out at 75.1%. The “Paclitaxel 50 μM: percent cell survival” value in assay [1] (setting [7]) worked out at 50.1%. The “Vincristine 100 nM: percent cell survival” value in assay [1] (setting [8]) worked out at 69.5%. Moreover, in assay [2], the viability at 1 µM is 95%. The viability at 5 µM in assay [2] was determined as 45.8%. Also, the “Viable cell percent change” value in the assay with THP-1 cells came to 39.53%.
For `CCCCCCOCCCCCCCCNc1ncnc2ccccc12` [EW, N-[8-(Hexyloxy)octyl]quinazolin-4-amine], the viability at 0.4 µM in assay [1] (setting [4]) and in assay [3] was 14.1% in each case. For the same compound, in assay [1] (setting [9]), the “Doxorubicin 3.5 μM: percent cell survival” value turned out to be 20%. The “Oxaliplatin 100 μM: percent cell survival” value in assay [1] (setting [10]) is 16.6%. Also, the “Paclitaxel 50 μM: percent cell survival” value in assay [1] (setting [11]) stood at 21.9%. Also, the “Vincristine 100 nM: percent cell survival” value in assay [1] (setting [12]) amounted to 14.8%. For the same compound, in assay [2], the viability at 1 µM worked out at 21.2%. The viability at 5 µM in assay [2] is 18.9%. Moreover, the “activity relative to AC in the LPS-triggered THP-1 cell death assay, in words” value in the assay with THP-1 cells (0.1 μM, 5-hour and 48-hour time points) was “equivalent activity to AC at both the 5-hour and 48-hour time points”.
Consider `CCCCCCCCCCCCOCCn1cnc2cnc3ccccc3c21` [FG, 1-[2-(Dodecyloxy)ethyl]-1H-imidazo[4,5-c]quinoline], for which, in assay [1] (Homo sapiens, compound 1.5 μM alone, Wst1, vehicle = 100, read-out: No Chemo: percent cell survival), the viability at 1.5 µM was found to be 39.2%. Further, in assay [1] (compound 1.5 μM + doxorubicin 3.5 μM), the “Doxorubicin 3.5 μM: percent cell survival” value worked out at 65.7%. For the same compound, the “Oxaliplatin 100 μM: percent cell survival” value in assay [1] (compound 1.5 μM + oxaliplatin 100 μM) was 85.5%. The “Paclitaxel 50 μM: percent cell survival” value in assay [1] (compound 1.5 μM + paclitaxel 50 μM) came out at 47.2%. In addition, in assay [1] (compound 1.5 μM + vincristine 100 nM), the “Vincristine 100 nM: percent cell survival” value came to 41%. For the same compound, in assay [2], the viability at 1 µM was 85.7% and the viability at 5 µM turned out to be 25.5%. In addition, the “Viable cell percent change” value in the assay with THP-1 cells amounted to 1.15%. Also, in assay [3] (1.5 μM), the viability at 1.5 µM came to 39.2%.
